A word on the melting point: it is the temperature of the solid-liquid transition.

`CCCC(=O)Cc1ccc(C(=O)Nc2ccc3cc(CN4CCCCCC4)cnc3c2C)cc1` gave a melting point of 136 to 137 °C. Take `Oc1ccc(C2OCN3C2=CCC3CCc2ccccc2)cc1` (configuration not stated): the melting point is 176 °C. For the molecule `CCOC(=NC(=O)Nc1ccc(Oc2ncc(C(F)(F)F)cc2Cl)cc1)c1c(F)cccc1F`, the melting point lay in the range of 127 to 130 °C. The value for `O=P(O)(O)C(O)(Cc1nn(-c2ccc(F)cc2)cc1-c1ccc(Cl)cc1)P(=O)(O)O` was 201 to 203 °C. Next, `CC(C)N1Cc2ccc(F)cc2N(CCN2CC=C(c3c[nH]c4cc(F)ccc34)CC2)S1(=O)=O`: 101 to 103 °C; `Cc1cccc(C)c1NC(C)(C)C(=O)O`: 148 °C. The value for `CC(C)C(Br)C(=O)Nc1ccccc1O` (configuration not stated) was 110 to 111 °C; that for `CCS(=O)C1(Cl)CC2C(Cc3ccccc3)C(=O)N2C1C(=O)OCc1ccccc1` (configuration not stated) was 118 to 123 °C; that for `C=COCCOc1ccc(C=CC(=O)C=Cc2ccc(OCCOC=C)cc2)cc1` was 124 to 125 °C.

As to `CN1c2cccc3cccc(c23)N(CCCN2CC=C(c3ccccc3)CC2)S1(=O)=O`, the melting point came out at 146 °C. `CCc1cc(Cl)cnc1N` registered a melting point of 67 to 68 °C. Next, `COc1cc([N+](=O)[O-])c(CCC(=O)O)c([N+](=O)[O-])c1O`: 195 °C; `O=C1CCCc2sc(-c3ccncc3)cc21`: 156 to 158 °C. Next, `CS(=O)(=O)N(Cc1cccnc1)c1ccccc1`: 104 to 105 °C; `C=CC1=C(C(=O)OCC)C(C(F)(F)F)Oc2ccc(Cl)cc21` (configuration not stated): 51.9 to 53.2 °C; `Clc1cccc(N2CCN(c3nc4cccccc-4n3)CC2)c1`: 217 to 219 °C. Next, `COc1ccc(S(=O)(=O)c2sc(S(N)(=O)=O)cc2C)cc1`: 140 to 143 °C; `COC(=O)C(C)c1cc(=O)n(Cc2ccccc2)c2ccccc12` (configuration not stated): 90 to 92.5 °C; `CC(=O)Nc1nc(CCc2ccc(CCC(=O)O)s2)cs1`: 164 to 165 °C. For the molecule `CC1(C)OC(=C(C#N)C#N)C(C#N)=C1C=Cc1c(F)c(F)c(N2C3C4CCC(C4)C32)c(F)c1F` (configuration not stated), the melting point came to 233 °C.

The molecule `C=CCN(CC=C)c1nc(NC(=O)c2ccc(Cl)cc2Cl)n2oc(=O)nc2n1` registered a melting point of 163 to 164 °C. The value for `Cc1oc(-c2ccccc2)nc1COc1ccc(CON=C(CCC(=O)O)c2ccc(Oc3ccccc3)cc2)cc1` was 131 to 132 °C; that for `Cc1ccc(C(=S)c2ccccc2C(=O)O)cc1` was 151 to 155 °C; that for `CNC(=N[N+](=O)[O-])NCc1cnc(Br)s1` was 170 °C.

As to `CCO[PH](=O)CN(C)c1cc(Oc2ccc(C(F)(F)F)cc2Cl)ccc1[N+](=O)[O-]` (configuration not stated), the melting point lay in the range of 118 to 120 °C. Next, `COc1ccc(-c2nc(Cl)cc(Cl)n2)cc1`: 127 to 128 °C; `CCCC[C@@H](NC(=O)OC(C)(C)C)C(=O)NCC(=O)OCc1ccccc1`: 85 to 86 °C. Take `COC(=O)c1cc(C(=O)OC)c(O)c([N+](=O)[O-])c1`: the melting point was 74 to 76 °C.

On to `Cc1c(CCC(=O)O)c2cc(Cl)ccc2n1Cc1ccc(Br)cc1`, for which the melting point was in the range of 154 to 155 °C. Next, `CC(C)OC(=O)c1nc(Cl)c(Cl)[nH]1`: 168 °C.

Regarding `COC(=O)c1cccc(OS(N)(=O)=O)c1`, the melting point lay within 145 to 146 °C. Next, `CN(C)S(=O)(=O)c1cc(C(=O)O)cc([N+](=O)[O-])c1Oc1ccccc1`: 224 to 226 °C; `CCCc1cc2c(NC(=S)N3Cc4ccccc4CC3CCO)cccc2cn1` (racemic): 175 °C; `COc1ccc(C=O)cc1CS(=O)(=O)O`: 54 °C. The value for `COc1cc(C=O)ccc1OCc1coc(-c2ccco2)n1` was 138 to 139 °C.

In the case of `CCN(CC)C(=O)C=Cc1cc(OC)c(OC)c(OC)c1`, the melting point turned out to be 132 °C.

Take `Cc1ccc2c(c1)N=C(N1CCN(C)CC1)c1cc(C)sc1O2`: the melting point lay in the range of 146 to 148 °C. The value for `COc1ccc(-n2nc(C(=O)c3ccccc3)cc2-c2ccc(C)cc2)cc1` was 138 to 139 °C; that for `COc1ccc(COC(=O)C2N3C(=O)C(N4C(=O)c5ccccc5C4=O)C3SCC2(C)O)cc1` (configuration not stated) was 216 to 217 °C. Next, `CN(C)C1CCN(c2nc(N3CCOCC3)c3ncnc(OCc4ccccc4)c3n2)CC1`: 186 to 188 °C. The molecule `CCN1C(=O)C(C)(C)C(=O)N(C)c2cc(CN(CCn3ccc4oc(C)cc4c3=O)Cc3nc(C)n4ccccc34)ccc21` yielded a melting point of 104 to 109 °C. With `CCCCCCCCCCCCCCCCc1nc(N(C)C)nc(C)c1O`, the melting point lay within 86 to 87 °C. The value for `Cc1c(NC(=O)c2ccc(-c3ccc4c(c3)CCO4)cc2F)ccc2cc(CN3CCCC3)cnc12` was 181 to 182 °C; that for `CSC(=C[N+](=O)[O-])NCCCn1cc(C2=C(c3cn(C)c4ccccc34)C(=O)NC2=O)c2ccccc21` was 144 to 146 °C. Turning to `COc1cc(C(=O)COC(C)=O)ccc1OCCCN1CCC(C(O)(c2ccc(F)cc2)c2ccc(F)cc2)CC1`, the melting point was 138 to 140 °C. The value for `O=C(O)C(CN1C(=O)CNC1=O)CS(=O)(=O)c1ccc(-c2ccc(Cl)cc2)cc1` (configuration not stated) was 188 to 190 °C.

Consider `COc1cc(OC)cc(N2CCN(C(=O)N(C)c3cc4ccccc4cc3OC)CC2)c1`, for which the melting point was in the range of 83 to 85 °C. On to `O=c1[nH]c2ccccc2n1CCN1CCN(C(c2ccccc2)c2ccccc2)CC1`, for which the melting point turned out to be 218 °C. Next, `COc1ccc2cc3c(Cl)nn(CC(C)N(C)C)c3nc2c1` (configuration not stated): 78 to 79 °C; `COc1ccc(S(=O)(=O)N2c3cc(F)ccc3-c3ccccc3C2C)cc1` (configuration not stated): 138 to 139 °C; `CCCCc1cn(Cc2ccc(-c3ccccc3C(=O)O)cc2)c2cc(C(=O)O)ccc2c1=O`: over 260 °C.

`CC#CCOc1ccc(SC(C(=O)NO)C2CCCCC2)cc1` (configuration not stated) came in with a melting point of 163 °C.

For `C/C(=C(\C#N)C(=S)/N=C/N(C)C)N1CCC(c2ccccc2)CC1`, the melting point was in the range of 151 to 152 °C.

`CCCCCCCCCCCCCCCCCCOc1ccc(C(=O)C(=O)O)cc1` returned a melting point of 78 to 80 °C.

`O=C1c2sc3ccccc3c2C(=O)c2sc3ccccc3c21` registered a melting point of 315 °C.

`O=C1CCC(N2Cc3c(OCc4ccc(CN5CCC(c6ccccc6)CC5)cc4)cccc3C2=O)C(=O)N1` (configuration not stated) showed a melting point of 220 to 222 °C.

Take `CCCCCCCOc1ccc(C(N)=O)cc1`: the melting point lay within 149 to 152 °C.

In turn, `CC1=C(C(=O)NN)C(c2ccccc2Cl)c2c[nH]nc2N1` (configuration not stated) gave a melting point of 220 °C. Next, `Cc1ccccc1-c1c(NC(=O)Nc2ccc(F)cc2F)c(=O)oc2ccc(C(C)C)cc12`: 199 to 200 °C; `COc1ccccc1C(C)C(Sc1ccc(C(=O)O)cc1)n1ccnc1` (configuration not stated): 118 to 124 °C. `COc1cc(N2CCN(C)CC2)ccc1-c1nc2c(N[C@H]3[C@@H](C(N)=O)[C@@H]4C=C[C@H]3C4)ccnc2[nH]1` registered a melting point of 185 to 195 °C. The value for `COc1cc(OC)nc(Sc2cnn(C)c2NS(=O)(=O)CC#N)n1` was 147 to 148 °C. Next, `CC(C)Cn1cc(F)c(=O)[nH]c1=O`: 173 to 174 °C. Next, `COc1cc(COc2cc(N)c(Cl)cc2C(=O)CCCCN2CCCCC2)cc(OC)c1`: 128 to 130 °C; `CNC(=O)c1cccc(Nc2nc(Nc3ccc4c(c3)CCCC(=O)N4C)ncc2Cl)c1`: 215 to 217 °C; `NS(=O)(=O)c1ccc(CCN2CCC(N3CCc4ccccc43)CC2)cc1`: 207 to 210 °C. For `C=CC1CC2=C(CC=C(OC)C2)C2CCC3(C)C(=CCC3O)C12` (configuration not stated), the melting point lay in the range of 129 to 136 °C. The value for `C#CCOc1noc2c1CN(C(=O)OC(C)(C)C)CC2` was 107 to 108 °C; that for `O=C(O)Cc1nc(-c2ccc(Cl)c(Cl)c2)oc1-c1ccoc1` was 222 to 223 °C. Next, `Nc1nc(N)c(C=O)c(OCC2CCCCC2)n1`: 159 to 160 °C. Consider `CCOC(CCCNS(=O)(=O)c1ccccc1)OCC`, for which the melting point stood at 109 °C.

As for `Cc1sc(N)c(C(=O)c2ccco2)c1C`, the melting point is 95 to 97 °C. The molecule `Cc1cc(-n2ccnc2)c2cccc(OCc3c(Cl)ccc(S(=O)(=O)N4CCC[C@H]4C(=O)N(C)CCCN(C)C)c3Cl)c2n1` gave a melting point of 80 °C. For `CC1(C)C=C(c2ccccc2O)c2cc(C#N)ccc2O1`, the melting point was 139 to 140 °C. The value for `C[C@@H]1CNCCN1C(=O)OC(C)(C)C` was 33 to 36 °C; that for `FC(F)(F)Cn1c(-c2c(Cl)cccc2Cl)nc(-c2ccncc2)c1-c1ccc(Cl)cc1` was 213 to 214 °C; that for `CCCCCCCNC1=CC(=O)c2c(OC)ccc(OC)c2C1=O` was 74 to 75 °C. In turn, `COc1ccc(NN=C(Sc2ccc(OC)c(OC)c2)C(C)=O)cc1` gave a melting point of 138 to 141 °C. Next, `CONCc1nc2c(N)nc3cc(-c4cccnc4)cnc3c2n1CC(C)(C)O`: 195 to 197 °C. The value for `Cc1oc(-c2ccccc2)nc1COc1ccc2cc(CCc3nnn[nH]3)oc2c1` was 177 to 178 °C; that for `CCCc1nc2c(N)nc3cc(OCCN4CCOCC4)ccc3c2s1` was 122 to 125 °C; that for `CC(C)(C)c1cc(CN(c2cccnc2)S(=O)(=O)c2ccc([N+](=O)[O-])cc2)cc(C(C)(C)C)c1O` was 159 to 160 °C. `Cc1ccccc1Sc1c(O)c2ccc(Cl)cc2[nH]c1=O` showed a melting point of 296 to 299 °C.

As to `CCCCc1nnc2ccccc2c1Cc1ccc(-c2ccccc2C(=O)O)cc1`, the melting point turned out to be 210 °C. For `Cc1nc(N2CCN(CC3CC3)C2=O)sc1-c1cc[nH]n1`, the melting point lay within 169 to 171 °C. The value for `CCOC(=O)c1ccc(N(CC)Cc2ccc(Cl)cc2)cc1` was 48 to 50 °C; that for `O=C(O)COc1ccc2c(c1)-c1nc(SCC(c3ccccc3)c3ccccc3)sc1CC2` was 165 to 167 °C.

For the origin of these results see a melting point compilation (Tetko et al.; mined from patent text by program, amines drawn as free bases though some values may be those of a salt).
